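Growth conditions: 96-well plates. Treatment: test compound, 48 hours, 5 concentrations. Analysis: linear interpolation between bracketing concentrations; unreached endpoints set to highest concentration. GI50 marks 50% less growth.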 Active and inactive are the calls of the source. No stated cut-off is given here; in the data, active = GI50 up to about 1.1 µM and inactive = higher.
How the values were obtained:
Assay in all cases: growth of human tumour cells (NCI), 48 h
A549 = tested on: A549
ACHN = tested on: ACHN
COLO 205 = tested on: COLO 205
HCT-15 = tested on: HCT-15
KM12 = tested on: KM12
MDA-N = tested on: MDA-N
NCI-H226 = tested on: NCI-H226
NCI-H460 = tested on: NCI-H460
NCI/ADR-RES = tested on: NCI/ADR-RES
OVCAR-4 = tested on: OVCAR-4
OVCAR-8 = tested on: OVCAR-8
RPMI-8226 = tested on: RPMI-8226
SF-295 = tested on: SF-295
SK-MEL-28 = tested on: SK-MEL-28
SK-MEL-5 = tested on: SK-MEL-5
SN12C = tested on: SN12C
T47D = tested on: T47D
UACC-62 = tested on: UACC-62
Malme-3M = tested on: Malme-3M
SR = tested on: SR

Row | SMILES | GI50 (A549) | GI50 (ACHN) | GI50 (COLO 205) | GI50 (HCT-15) [µM] | GI50 (KM12) | GI50 (MDA-N) | GI50 (NCI-H226) | GI50 (NCI-H460) | GI50 (NCI/ADR-RES) | GI50 (OVCAR-4) | GI50 (OVCAR-8) | GI50 (RPMI-8226) | GI50 (SF-295) | GI50 (SK-MEL-28) | GI50 (SK-MEL-5) | GI50 (SN12C) | GI50 (T47D) | GI50 (UACC-62) | GI50 (Malme-3M) | GI50 (SR)
1 | CN(C)C(=S)N/N=C\C(=N/NC(=S)N(C)C)c1ccccc1 | 5.31 µM (inactive) | 3.72 µM (inactive) | 4.03 µM (inactive) | 2.71 | 15 µM (inactive) | > 61.8 µM (inactive) | 4.61 µM (inactive) | 1.36 µM (inactive) | 2.98 µM (inactive) | 5.74 µM (inactive) | 4.82 µM (inactive) | 4.68 µM (inactive) | 4.93 µM (inactive) | 7.16 µM (inactive) | 9.84 µM (inactive) | 6.24 µM (inactive) | 1.28 µM (inactive) | 8.41 µM (inactive) |  | 
2 | c1ccc(C(C2=Nc3cccc4cccc(c34)N2)c2ccccc2)cc1 | 37.2 µM (inactive) | 19.3 µM (inactive) | 18.9 µM (inactive) | 25.1 | 20.6 µM (inactive) | 23.4 µM (inactive) | 31.6 µM (inactive) | 24.7 µM (inactive) | 21.2 µM (inactive) | 53.5 µM (inactive) | 30.7 µM (inactive) | 21.6 µM (inactive) | 21.1 µM (inactive) | 23.6 µM (inactive) | 20.5 µM (inactive) | 14.8 µM (inactive) | 13.3 µM (inactive) | 17.5 µM (inactive) | 27.8 µM (inactive) | 
3 | Nc1ccn(C2OC(C(OC3OC(CO)C(O)C(N)C3O)C(O)C(O)C(O)C(O)CO)C(N)C(O)C2O)c(=O)n1 (stereo not drawn) | > 100 µM (inactive) | 21.7 µM (inactive) | > 100 µM (inactive) | 36.3 | 70 µM (inactive) | > 100 µM (inactive) |  | 22 µM (inactive) | 49.1 µM (inactive) | 3.54 µM (inactive) | 81.5 µM (inactive) | > 100 µM (inactive) | 13.1 µM (inactive) | > 100 µM (inactive) | > 100 µM (inactive) | > 100 µM (inactive) | > 100 µM (inactive) | 71 µM (inactive) |  | 19.9 µM (inactive)
4 | O=C(/N=N/c1ccc(Cl)cc1Cl)NNc1ccc(Cl)cc1Cl | 18.2 µM (inactive) | 16.6 µM (inactive) |  | 19.6 |  | 16.2 µM (inactive) | 19 µM (inactive) | 16.4 µM (inactive) |  | 13.3 µM (inactive) | 17.7 µM (inactive) | 19 µM (inactive) |  | 20.7 µM (inactive) | 14.9 µM (inactive) | 16.4 µM (inactive) | 21.7 µM (inactive) | 13.9 µM (inactive) | 18.6 µM (inactive) | 23.2 µM (inactive)
5 | COc1ccc2c(c1)CCC1=CC3(CCC12C)SCCS3 (stereo not drawn) | 8.05 µM (inactive) | 5.3 µM (inactive) | 4.73 µM (inactive) | 6.38 | 4.27 µM (inactive) | 2.59 µM (inactive) |  |  | 3.56 µM (inactive) | > 10 µM (inactive) | > 10 µM (inactive) | 3.5 µM (inactive) | 3.87 µM (inactive) | 5.24 µM (inactive) | 6.93 µM (inactive) | 9.25 µM (inactive) | 6.03 µM (inactive) | 4.14 µM (inactive) | 5.35 µM (inactive) | 4.41 µM (inactive)
6 | COC1=CC(=O)C(O)=C(C[C@@]2(C)[C@@H]3CCC[C@H](COC(=O)CCCCCNC(=O)OC(C)(C)C)[C@@]3(C)CC[C@@H]2C)C1=O | 3.59 µM (inactive) | 3.32 µM (inactive) | 4.08 µM (inactive) |  | > 10 µM (inactive) | > 10 µM (inactive) | 8.45 µM (inactive) |  |  | > 10 µM (inactive) | 6.73 µM (inactive) | 3.54 µM (inactive) | 5.28 µM (inactive) | 8.63 µM (inactive) | 3.77 µM (inactive) | > 10 µM (inactive) | 4.45 µM (inactive) |  | 5.9 µM (inactive) | 5.22 µM (inactive)
7 | Cc1cccc(C)c1NC(=O)C(=O)CC(=O)c1sc(Nc2c(C)cccc2C)nc1C | > 100 µM (inactive) | > 100 µM (inactive) | > 100 µM (inactive) | > 100 | > 100 µM (inactive) | > 100 µM (inactive) | > 100 µM (inactive) | > 100 µM (inactive) | > 100 µM (inactive) | > 100 µM (inactive) | > 100 µM (inactive) | > 100 µM (inactive) | > 100 µM (inactive) |  |  | > 100 µM (inactive) | > 100 µM (inactive) | > 100 µM (inactive) |  | 
8 | C/C=C/C1OC(O)(C(C)C(O)[C@H](C)C2OC(=O)/C(OC)=C/C(C)=C/[C@@H](C)[C@@H](O)[C@@H](C)C(O)C(C)C/C(C)=C/C=C/C2OC)C[C@@H](OC2CC(O)C(OC(N)=O)C(C)O2)C1C (stereo partly drawn) | < 0.01 µM (active) | < 0.01 µM (active) | < 0.01 µM (active) | < 0.01 | < 0.01 µM (active) | < 0.01 µM (active) | < 0.01 µM (active) | < 0.01 µM (active) | < 0.0127 µM (active) | 3.04 µM (inactive) | < 0.01 µM (active) | < 0.01 µM (active) | < 0.01 µM (active) | 1.45 µM (inactive) | < 0.01 µM (active) | < 0.01 µM (active) | < 0.01 µM (active) | < 0.01 µM (active) | < 0.01 µM (active) | 
9 | O=C1CCCSCCCC(=O)CCCSCCC1 | > 100 µM (inactive) |  | > 100 µM (inactive) | > 100 | > 100 µM (inactive) | > 100 µM (inactive) |  | > 100 µM (inactive) | > 100 µM (inactive) | > 100 µM (inactive) | > 100 µM (inactive) |  | > 100 µM (inactive) | > 100 µM (inactive) | > 100 µM (inactive) | > 100 µM (inactive) | > 100 µM (inactive) | > 100 µM (inactive) |  | > 100 µM (inactive)
10 | CCC(=O)Nc1ncnc2ncn(C(=O)CC)c12 | > 100 µM (inactive) | > 100 µM (inactive) |  | > 100 | > 100 µM (inactive) | > 100 µM (inactive) |  | > 100 µM (inactive) | > 100 µM (inactive) | > 100 µM (inactive) | > 100 µM (inactive) | > 100 µM (inactive) | > 100 µM (inactive) | > 100 µM (inactive) |  | > 100 µM (inactive) | > 100 µM (inactive) | > 100 µM (inactive) | > 100 µM (inactive) | > 100 µM (inactive)
11 | COc1ccccc1-c1nc[nH]c1-c1ccccc1OC | 22.6 µM (inactive) | 35.9 µM (inactive) |  | 35 | 2.45 µM (inactive) | 16.1 µM (inactive) |  | 24.3 µM (inactive) | 22 µM (inactive) | 25.8 µM (inactive) |  | 29.3 µM (inactive) | 26 µM (inactive) | 33.7 µM (inactive) |  | 38 µM (inactive) | 37.6 µM (inactive) |  | 11.2 µM (inactive) | 
12 | CCCCNC(=S)N/C=C1\C(=O)Oc2ccccc2C1=O | > 100 µM (inactive) | 31.4 µM (inactive) | > 100 µM (inactive) | 48 | > 100 µM (inactive) | 64 µM (inactive) | > 100 µM (inactive) | 64.1 µM (inactive) | > 100 µM (inactive) | 74.5 µM (inactive) | 42.4 µM (inactive) |  | > 100 µM (inactive) | 77.8 µM (inactive) | > 100 µM (inactive) | 68.5 µM (inactive) | 81.5 µM (inactive) |  |  | 
